Measured values taken from US20050124685A1, “Polyether brevetoxin derivatives as a treatment for neurotoxic shellfish poisoning and ciguatera fish poisoning” (priority 2003, published 2005).
pKi: −log10 of the molar value. Like-named read-outs stand apart in the source and are kept apart here.

What was measured:
[1] = test system: isolated rat brain sodium channels (site 5); details: read-out: Ki, competitive displacement assay, synaptosomal binding
[2] = test system: sodium channels; test: Patch clamp single sodium channel currents in membrane patches; assay type: cell-based; details: 100 nM, n=6, FIG. 2C, 2D
Description: FIG. 2A-D illustrates single sodium channel currents in patch clamp sodium channels during successive command depolarizations to −10 mV from a command potential of −100 mV in the same membrane patch before (2A) and after (2B) exposure to β-naphthoyl-PbTx-3 (100 nM, n=6). […] The average area under the β-naphthoyl-PbTx-3 curve was 71.8±18.3% less than that of PbTx-3.
FIG. 3A-E illustrates the steady state currents in four different membrane patches at a steady state command voltage of −50 mV. 3A are control traces preceeding the test with PbTx-3, and are representative of control recordings observed in all four patches during 7.2 s of continuous observation. 3B are traces for membrane patches exposed to PbTx-3 (100 nM, […]). 3C are traces for membrane patches exposed to benzoyl-PbTx-3 (100 nM, n=6). 3D are traces for membrane patches exposed to α-naphthoyl-PbTx-3 (100 nM, n=6). 3E are traces for membrane patches exposed to β-naphthoyl-PbTx-3 (100 nM, n=6). The experimental recordings are representative of 7.2 s of continuous observation in PbTx-3 or the particular derivative.

[3] = test system: isolated rat brain sodium channels (site 5); details: Purkerson-Parker, et al., 2000; cited from earlier work
[4] = test system: sodium channels; details: steady state; Purkerson-Parker, et al., 2000; cited from earlier work
[5] = isolated rat brain sodium channels, FIG. 1

C=C(CO)CC1CC(O)C2(C)OC3CC4OC5CC6(C)OC7(C)CCC8OC9CC%10(C)OC%11C(C)=CC(=O)OC%11CC%10OC9CC(C)C8OC7CC6OC5(C)CC=CC4OC3CC2O1 (centres unmarked) [PbTx-3, reference compound]
pKi [1]: 8.52

Benzoyl-PbTx-3
pKi [1, 5]: 9.70

α-Naphthoyl-PbTx-3
pKi [1, 5]: 8.33

β-Naphthoyl-PbTx-3
pKi [1, 5]: 8.97 | average area under the ensemble average curve, less than that of PbTx-3 ([2]; depolarizations to −10 mV from command potential of −100 mV): 71.8±18.3% | peak sodium current (ensemble averages) ([2]; depolarizations to −10 mV from −100 mV): reduction in peak sodium current | displacement of native toxin from binding site [3]: displaces the native toxin from its binding site | opening of sodium channels [4]: does not elicit opening of sodium channels in steady state
